Laboratory results from patent publication US10669272B2, “Substituted naphthyridinone compounds useful as T cell activators” (BRISTOL-MYERS SQUIBB COMPANY, priority 2018, dated 2020).
pEC50, pIC50: −log10 of the molar value. Like-named read-outs stand apart in the source and are kept apart here.

Experiments:
human DGKα = biological target: T1, human DGKα (Homo sapiens, UniProt P23743); assay: DGKα LIPGLO assay (extruded liposome substrate), in vitro DGK inhibition; assay type: biochemical; conditions: read-out: DGKa LIPGLO IC50
T1 construct: TVMV protease cleavage site (C); Hexa-His (C); made in house; host or cells: Sf9 insect cells (baculovirus, Bac-to-Bac)

human DGKζ = biological target: T2, human DGKζ (Homo sapiens, UniProt Q13574); assay: DGKζ LIPGLO assay (extruded liposome substrate), in vitro DGK inhibition; assay type: biochemical; conditions: read-out: DGKz LIPGLO IC50
T2 construct: TVMV protease cleavage site (C); Hexa-His (C); made in house; host or cells: Sf9 insect cells (baculovirus, Bac-to-Bac)

Human venous whole blood = assay: Human whole blood IFN-γ assay; assay type: cell-based; conditions: human whole blood, read-out: INFg Whole Blood Normalized Agonist EC50;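 further: blood from healthy donors exposed to compound for 1 h before stimulation with anti-CD3 and anti-CD28 at 1 µg/mL each, IFN-γ quantified in supernatant by AlphaLISA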
[1] = Homo sapiens, 24 h, normalized to 3 μM reference compound with anti-CD3 plus anti-CD28 as 100% activation
[2] = normalized to 3 μM reference compound with anti-CD3 plus anti-CD28 as 100% activation
[3] = anti-CD3 plus anti-CD28, 24 hours, 3 μM reference compound = 100% activation
[4] = Homo sapiens, 24 h, anti-CD3 plus anti-CD28, 24 hours, 3 μM reference compound = 100% activation

T1 sequence (P23743 with tags, fused parts or gaps): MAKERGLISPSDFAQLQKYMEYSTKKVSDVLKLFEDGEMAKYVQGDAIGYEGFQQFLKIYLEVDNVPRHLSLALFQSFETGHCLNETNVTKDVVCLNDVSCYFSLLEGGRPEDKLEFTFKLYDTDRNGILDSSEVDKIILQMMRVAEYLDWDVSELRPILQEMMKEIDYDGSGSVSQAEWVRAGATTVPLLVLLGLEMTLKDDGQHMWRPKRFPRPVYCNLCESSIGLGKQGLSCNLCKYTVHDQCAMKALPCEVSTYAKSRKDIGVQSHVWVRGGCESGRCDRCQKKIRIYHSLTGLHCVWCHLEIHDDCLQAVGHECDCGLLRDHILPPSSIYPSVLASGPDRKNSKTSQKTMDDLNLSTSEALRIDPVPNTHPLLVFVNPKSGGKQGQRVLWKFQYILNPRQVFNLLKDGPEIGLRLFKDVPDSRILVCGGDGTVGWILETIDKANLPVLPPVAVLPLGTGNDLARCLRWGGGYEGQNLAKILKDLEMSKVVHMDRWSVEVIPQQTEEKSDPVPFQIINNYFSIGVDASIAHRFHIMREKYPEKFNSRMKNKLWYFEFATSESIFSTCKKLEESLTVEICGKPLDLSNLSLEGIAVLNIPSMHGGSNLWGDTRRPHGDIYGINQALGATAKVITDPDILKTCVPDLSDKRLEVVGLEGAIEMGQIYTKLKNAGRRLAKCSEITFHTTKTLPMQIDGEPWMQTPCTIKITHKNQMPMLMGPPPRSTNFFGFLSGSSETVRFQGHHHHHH
T2 sequence (Q13574 with tags, fused parts or gaps isoform Q13574-4): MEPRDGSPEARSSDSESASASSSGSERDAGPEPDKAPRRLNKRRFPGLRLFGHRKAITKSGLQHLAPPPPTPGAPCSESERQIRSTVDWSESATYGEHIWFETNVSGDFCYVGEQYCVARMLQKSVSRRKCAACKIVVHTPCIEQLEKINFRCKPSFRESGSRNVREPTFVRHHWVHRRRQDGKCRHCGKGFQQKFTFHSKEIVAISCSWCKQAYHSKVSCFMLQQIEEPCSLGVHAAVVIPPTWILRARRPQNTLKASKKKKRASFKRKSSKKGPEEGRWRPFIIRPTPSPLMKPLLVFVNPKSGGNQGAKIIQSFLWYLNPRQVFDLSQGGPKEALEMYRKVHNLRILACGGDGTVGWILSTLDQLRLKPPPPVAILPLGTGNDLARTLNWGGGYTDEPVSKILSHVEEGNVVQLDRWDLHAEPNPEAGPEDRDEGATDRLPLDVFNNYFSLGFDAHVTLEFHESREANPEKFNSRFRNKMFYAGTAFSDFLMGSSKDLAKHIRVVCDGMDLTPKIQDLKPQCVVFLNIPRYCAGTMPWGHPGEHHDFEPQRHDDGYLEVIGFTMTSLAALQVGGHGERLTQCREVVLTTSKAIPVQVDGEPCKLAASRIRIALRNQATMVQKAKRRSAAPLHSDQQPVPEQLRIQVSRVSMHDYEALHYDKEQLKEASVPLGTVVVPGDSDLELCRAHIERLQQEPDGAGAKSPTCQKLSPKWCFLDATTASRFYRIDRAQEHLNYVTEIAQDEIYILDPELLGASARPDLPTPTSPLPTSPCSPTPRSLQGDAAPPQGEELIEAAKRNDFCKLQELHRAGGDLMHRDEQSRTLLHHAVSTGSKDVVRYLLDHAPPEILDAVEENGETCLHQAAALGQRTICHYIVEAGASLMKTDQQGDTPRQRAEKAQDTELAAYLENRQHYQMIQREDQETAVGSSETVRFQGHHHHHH

Row | pIC50 (human DGKα; liposome (LIPGLO) assay) | pIC50 (human DGKζ; liposome (LIPGLO) assay) | pIC50 (human DGKα; DGKα liposome (LIPGLO) assay) | pIC50 (human DGKζ; DGKζ liposome (LIPGLO) assay) | SMILES | pEC50 (Human venous whole blood; [1]) | pEC50 (Human venous whole blood; [2]) | pEC50 (Human venous whole blood; [3]) | pEC50 (Human venous whole blood; [4])
1 | 4.12 | 6.80 |  |  | COCCOc1cc(C(C)N2C[C@H](C)N(c3cc(=O)n(C)c4ccc(C#N)nc34)C[C@H]2C)ccc1C#N (single isomer, unassigned) [Example 1320] | 5.15 |  |  | 
2 | 5.44 | 5.82 |  |  | C[C@@H]1CN(c2cc(=O)n(C)c3ccc(C#N)nc23)[C@@H](C)CN1C(c1ccc(F)cc1)c1cccc(C(F)(F)F)n1 (stereo partly drawn) [Example 678] |  | 6.36 |  | 
3 |  |  | 5.20 | 5.07 | C[C@@H]1CN(c2cc(=O)n(C)c3ccc(C#N)nc23)[C@@H](C)CN1C(c1ccc(F)cc1)c1nnnn1C(C)(C)C (single isomer, unassigned) [Example 771] |  |  | 5.00 | 
4 | 6.40 | 6.17 |  |  | CC(c1ccc(OC(F)(F)F)cc1F)N1C[C@H](C)N(c2cc(=O)n(C)c3ccc(C#N)nc23)C[C@H]1C (stereo partly drawn) [Example 437, 8-((2S,5R)-4-(1-(2-fluoro-4-(trifluoromethoxy)phenyl)ethyl)-2,5-dimethylpiperazin-1-yl)-5-methyl-6-oxo-5,6-dihydro-1,5-naphthyridine-2-carbonitrile] | 6.27 |  |  | 
5 |  |  | 5.26 | 5.72 | Cc1ccc(C(c2cccc(F)c2)N2CCN(c3c(C#N)c(=O)n(C)c4ccc(C#N)nc34)C[C@H]2C)nc1 (single isomer, unassigned) [Example 923] |  |  |  | 6.10
6 |  |  | 4.80 | 6.70 | C[C@@H]1CN(c2cc(=O)n(C)c3ccc(C#N)nc23)[C@@H](C)CN1C(c1ccc(F)cc1)c1nc(C2CC2)nn1C (single isomer, unassigned) [Example 769] |  |  | 6.34 | 
7 | 6.64 | 6.27 |  |  | Cc1ccc(C(c2ccc(C)cn2)N2C[C@H](C)N(c3cc(=O)n(C)c4ccc(C#N)nc34)C[C@H]2C)cc1 (single isomer, unassigned) [Example 454] | 6.33 |  |  | 
8 | 6.92 | 6.33 |  |  | CC(c1ccc(OC(F)(F)F)c(F)c1)N1C[C@H](C)N(c2cc(=O)n(C)c3ccc(C#N)nc23)C[C@H]1C (single isomer, unassigned) [Example 1269] |  | 6.27 |  | 
9 | 3.62 | 3.62 |  |  | Cn1c(=O)cc(N2CCN(C(c3ccc(F)cc3)c3ccc(F)cc3)CC2c2ccccc2)c2nc(C#N)ccc21 (single isomer, unassigned) [Example 155, 8-(4-(bis(4-fluorophenyl)methyl)-2-phenylpiperazin-1-yl)-5-methyl-6-oxo-5,6-dihydro-1,5-naphthyridine-2-carbonitrile] |  | 4.70 |  | 
10 | 5.18 | 4.29 |  |  | C[C@@H]1CN(c2cc(=O)n(C)c3ccc(C#N)nc23)[C@@H](C)CN1C(c1ccc(F)cc1)c1nccn1C (stereo partly drawn) [Example 713] |  | 4.89 |  | 
11 | 6.92 | 7.05 |  |  | CC[C@@H]1CN(c2cc(=O)n(C)c3ccc(C#N)nc23)[C@@H](C)CN1C(c1ccc(Cl)cc1)c1ccccn1 (single isomer, unassigned) [Example 422] |  | 6.66 |  | 
12 |  |  | 7.14 | 5.96 | C[C@@H]1CN(c2cc(=O)n(C)c3ccc(C#N)nc23)[C@@H](C)CN1C(c1ccc(F)cc1)c1cscn1 (stereo partly drawn) [Example 721] |  |  | 5.46 | 
13 | 5.89 | 5.44 |  |  | C[C@@H]1CN(c2cc(=O)n(C)c3ccc(C#N)nc23)[C@@H](C)CN1C(c1ccc(Cl)cc1)c1ccncn1 (single isomer, unassigned) [Example 396] | 6.72 |  |  | 
14 |  |  | 5.19 | 5.60 | C[C@@H]1CN(c2c(C#N)c(=O)n(C)c3ccc(C#N)nc23)CCN1C(c1ccc(F)cc1)c1cccc(F)c1 (stereo partly drawn) [Example 880] |  |  | 4.70 | 
15 | 5.77 | 5.72 |  |  | C[C@@H]1CN(c2c(F)c(=O)n(C)c3ccc(C#N)nc23)[C@@H](C)CN1C(c1ccc(F)cc1)c1cccc(F)c1 (single isomer, unassigned) [Example 331] |  | 4.70 |  | 
16 |  |  | 5.55 | 5.28 | Cc1cccc(CN2CCN(c3c(C#N)c(=O)n(C)c4ccc(C#N)nc34)C[C@H]2C)n1 [Example 988] |  |  |  | 4.70
17 | 5.14 | 5.25 |  |  | C[C@@H]1CN(c2cc(=O)n(C)c3ccc(C#N)nc23)[C@@H](C)CN1Cc1cccc(OC(F)(F)F)c1 [Example 586] | 5.64 |  |  | 
18 | 4.96 | 7.00 |  |  | COc1cc(F)c(C(C)N2C[C@H](C)N(c3cc(=O)n(C)c4ccc(C#N)nc34)C[C@H]2C)cc1OC (single isomer, unassigned) [Example 1246] |  | 5.68 |  | 
19 | 5.66 | 5.18 |  |  | C[C@@H]1CN(c2c(C#N)c(=O)n(C)c3ccc(C#N)nc23)CCN1C(c1ccc(Cl)cc1)c1ccncn1 (single isomer, unassigned) [Example 319] | 5.80 |  |  | 
20 | 5.51 | 5.41 |  |  | C[C@@H]1CN(c2cc(=O)n(C)c3ccc(C#N)nc23)[C@@H](C)CN1Cc1ccc(OC(F)(F)F)cc1F (single isomer, unassigned) [Example 591] | 4.72 |  |  | 
21 | 5.18 | 4.70 |  |  | C[C@@H]1CN(c2cc(=O)n(C)c3ccc(C#N)nc23)[C@@H](C)CN1C(c1ccc(F)cc1)c1cnsc1 (single isomer, unassigned) [Example 716] |  | 5.51 |  | 
22 |  |  | 4.59 | 5.55 | C[C@@H]1CN(c2c(C#N)c(=O)n(C)c3ccc(C#N)nc23)CCN1C(c1ccc(Cl)cc1)c1ccc2c(c1)OC(F)(F)O2 (single isomer, unassigned) [Example 942] |  |  | 4.70 | 
23 |  |  | 4.00 | 5.28 | C[C@@H]1CN(c2c(C#N)c(=O)n(C)c3ccc(C#N)nc23)[C@@H](C)CN1C(c1ccc(F)cc1)c1cccc(C(F)(F)F)n1 (single isomer, unassigned) [Example 844] |  |  |  | 5.57
24 |  |  | 4.09 | 4.13 | C[C@@H]1CN(c2c(C#N)c(=O)n(C)c3ccc(C#N)nc23)CCN1C(c1ccc(F)cc1)c1cncn1C (single isomer, unassigned) [Example 1018] |  |  |  | 4.70
25 |  |  | 7.13 | 6.92 | CC(c1c(F)cccc1F)N1C[C@H](C)N(c2c(C#N)c(=O)n(C)c3ccc(C#N)nc23)C[C@H]1C (single isomer, unassigned) [Example 781] |  |  |  | 6.08
26 | 7.19 | 7.00 |  |  | CC[C@H]1CN(C(C)c2ccc(F)c(F)c2)[C@H](C)CN1c1cc(=O)n(C)c2ccc(C#N)nc12 (single isomer, unassigned) [Example 1139] |  | 5.96 |  | 
27 |  |  | 6.74 | 6.54 | Cc1cc(C(c2ccc(F)cc2)N2C[C@H](C)N(c3cc(=O)n(C)c4ccc(C#N)nc34)C[C@H]2C)no1 (single isomer, unassigned) [Example 734] |  |  | 5.85 | 
28 | 5.51 | 6.00 |  |  | Cc1ccc(C(c2ccc(F)cc2)N2C[C@H](C)N(c3c(F)c(=O)n(C)c4ccc(C#N)nc34)C[C@H]2C)cc1 (stereo partly drawn) [Example 332, 7-fluoro-8-((2S,5R)-4-((4-fluorophenyl)(p-tolyl)methyl)-2,5-dimethylpiperazin-1-yl)-5-methyl-6-oxo-5,6-dihydro-1,5-naphthyridine-2-carbonitrile] | 5.72 |  |  | 
29 | 4.70 | 5.77 |  |  | COc1ccc(C(C)N2C[C@H](C)N(c3cc(=O)n(C)c4ccc(C#N)nc34)C[C@H]2C)cc1C(F)(F)F (stereo partly drawn) [Example 1250] |  | 4.74 |  | 
